Structures can show the parent of a compound that is named as a salt.
Key:
Male ICR mice [1] = assay: Activity counts in the drug-paired compartment on CPP test day; assay type: in vivo, mouse; conditions: mean ± S.E.M., n=6-8
[2] = Plasma nicotine and cotinine levels in the CPP test; assay type: in vivo, mouse
Male ICR mice [3] = assay: Mecamylamine-precipitated nicotine withdrawal: somatic signs; assay type: in vivo, mouse; conditions: methoxsalen 15 mg/kg i.p. 15 min before nicotine 2 mg/kg s.c. three times daily for 4 days; mecamylamine 2 mg/kg s.c. on day 5
Male ICR mice [4] = assay: Nicotine conditioned place preference; assay type: in vivo, mouse
human CYP2A6 = conditions: ref Zhang et al., 2001; Damaj et al., 2007; cited from earlier work
Male ICR mice [5] = assay: Mecamylamine-precipitated nicotine withdrawal: elevated plus maze; assay type: in vivo, mouse
[6] = CYP2A(4/5) null mouse; ref Wei et al., 2013; cited from earlier work
Male ICR mice [7] = assay: Spontaneous nicotine withdrawal and its reversal: hot plate hyperalgesia; assay type: in vivo, mouse; conditions: chronic nicotine 36 mg/kg/day in minipumps for 7 days, after removing the mini pumps
Male ICR mice [8] = conditions: chronic nicotine 36 mg/kg/day in minipumps for 7 days, after removing the mini pumps

| Compound | Activity counts in the drug-paired compartment on test day (Male ICR mice [1]; methoxsalen 15 mg/kg i.p. + nicotine 0.1 mg/kg s.c.) | Activity counts in the drug-paired compartment on test day (Male ICR mice [1]; methoxsalen 15 mg/kg i.p. + saline) | Activity counts in the drug-paired compartment on test day (Male ICR mice [1]; methoxsalen 30 mg/kg i.p. + nicotine 0.1 mg/kg s.c.) | Activity counts in the drug-paired compartment on test day (Male ICR mice [1]; methoxsalen 30 mg/kg i.p. + saline) | Activity counts in the drug-paired compartment on test day (Male ICR mice [1]; methoxsalen 45 mg/kg i.p. + nicotine 0.1 mg/kg s.c.) | Activity counts in the drug-paired compartment on test day (Male ICR mice [1]; methoxsalen 45 mg/kg i.p. + saline) | Effect on nicotine plasma levels ([2]; highest dose of methoxsalen (45 mg/kg i.p.) before nicotine 0.1 mg/kg s.c.) | Effect on nicotine plasma levels ([2]; methoxsalen 15, 30, 45 mg/kg i.p. 15 min before nicotine 0.1 mg/kg s.c., blood 20 min after nicotine, last conditioning day) | Somatic withdrawal signs (Male ICR mice [3]) | Nicotine conditioned place preference (Male ICR mice [4]; methoxsalen 45 mg/kg i.p. 15 min prior to nicotine 0.1 mg/kg s.c.) | Nicotine conditioned place preference (Male ICR mice [4]; methoxsalen 15 and 30 mg/kg i.p. 15 min prior to nicotine 0.1 mg/kg s.c.) | Inhibition of human CYP2A6 (human CYP2A6) | Number Crossovers (Mean ± SEM) in the plus-maze test (Male ICR mice [5]; Methoxsalen 15 mg/kg i.p. / Vehicle / Mecamylamine 2 mg/kg s.c., 5 min, n=5-7) | Average time spent in open arms (elevated plus maze) (Male ICR mice [5]; methoxsalen 15 mg/kg i.p. 15 min before nicotine 2 mg/kg s.c. three times daily for 4 days, mecamylamine 2 mg/kg s.c. on day 5) | Decrease in rate of nicotine clearance [6] | Time spent on the hot-plate in spontaneous withdrawal (Male ICR mice [7]) | Nicotine conditioned place preference (Male ICR mice [4]; nicotine 0.1 mg/kg s.c. alone (vehicle pretreatment), vs vehicle-treated group) | Number of somatic signs in spontaneous withdrawal (Male ICR mice [8]) |
| --- | --- | --- | --- | --- | --- | --- | --- | --- | --- | --- | --- | --- | --- | --- | --- | --- | --- | --- |
| COc1c2occc2cc2ccc(=O)oc12 [Methoxsalen, 8-methoxypsoralen] | 524 ± 69 | 561 ± 83 | 488 ± 111 | 470 ± 105 | 513 ± 103 | 503 ± 89 | doubled | significantly increased | significant somatic withdrawal signs | no longer significant | produced a significant CPP | potent inhibitor | 6.0 ± 0.8 | further decrease | – | – | – | – |
| CN1CCC[C@H]1c1cccnc1 [Nicotine, (−)-1-Methyl-2-(3-pyridyl) pyrrolidine (+)-bitartrate salt] | – | – | – | – | – | – | – | – | – | – | – | – | – | – | 90% | decreased | did not induce place preference | significantly increased |

Source: paper PMC4106981 (Neuropharmacology, 2014)
